How the values were obtained:
Format in all cases: in vivo
[1] = tested on: morningglory (Ipomoea coccinea); experiment: Test B pre-/postemergence plant response; conditions: for Morningglory plant response rating: 8 g ai/ha
Summary of the method: (§1)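 Seeds were sown and sprayed preemergence, while plants at 2 to 18 cm (1- to 4-leaf stage) got postemergence sprays. Compounds were formulated in a non-phytotoxic solvent mixture with surfactant. After 13 to 15 days in a greenhouse, injury was rated visually against untreated controls, 0 (no effect) to 100 (complete control).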

corn (Zea mays) = experiment: Test B pre-/postemergence plant response; conditions: for Corn plant response rating: 8 g ai/ha
Summary of the method: as §1

wild oat (Avena fatua) = experiment: Test B pre-/postemergence plant response; conditions: for Oat, Wild plant response rating: 8 g ai/ha
Summary of the method: as §1

[2] = tested on: velvetleaf (Abutilon theophrasti); experiment: Test B pre-/postemergence plant response; conditions: for Velvetleaf plant response rating: 8 g ai/ha
Summary of the method: as §1

[3] = tested on: large crabgrass (Digitaria sanguinalis); experiment: Test B pre-/postemergence plant response; conditions: for Crabgrass, Large plant response rating: 8 g ai/ha
Summary of the method: as §1

[4] = tested on: green foxtail (Setaria viridis); experiment: Test B pre-/postemergence plant response; conditions: for Foxtail, Green plant response rating: 8 g ai/ha
Summary of the method: as §1

[5] = tested on: downy bromegrass (Bromus tectorum); experiment: Test B pre-/postemergence plant response; conditions: for Bromegrass, Downy plant response rating: 8 g ai/ha
Summary of the method: as §1

[6] = tested on: wheat (Triticum aestivum); experiment: Test B pre-/postemergence plant response; conditions: for Wheat plant response rating: 8 g ai/ha
Summary of the method: as §1

[7] = tested on: surinam grass (Brachiaria decumbens); experiment: Test B pre-/postemergence plant response; conditions: for Surinam Grass plant response rating: 8 g ai/ha
Summary of the method: as §1

[8] = tested on: common (oilseed) sunflower (Helianthus annuus); experiment: Test B pre-/postemergence plant response; conditions: Preemergence
Summary of the method: as §1

[9] = tested on: umbrella sedge (Cyperus difformis); experiment: Test B flooded paddy test plant response
Summary of the method: (§2)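 2-leaf plants; pots flooded 3 cm above soil; compound added to paddy water; depth maintained. Greenhouse 13–15 d. Visual rating vs controls, 0 (no effect) to 100 (complete control); dash = no result.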

rice (Oryza sativa) = experiment: Test B flooded paddy test plant response
Summary of the method: as §2

[10] = tested on: ducksalad (Heteranthera limosa); experiment: Test B flooded paddy test plant response
Summary of the method: as §2

[11] = tested on: barnyardgrass (Echinochloa crus-galli); experiment: Test B flooded paddy test plant response
Summary of the method: as §2

[12] = Postemergence, 16 g ai/ha, scale 0 to 100
[13] = Postemergence, 31 g ai/ha, scale 0 to 100, 0 no effect, 100 complete control
[14] = Postemergence, 62 g ai/ha, scale 0 to 100, 0 no effect, 100 complete control
[15] = Preemergence, 16 g ai/ha, scale 0 to 100 (0 no effect, 100 complete control)
[16] = Preemergence, 31 g ai/ha, scale 0 to 100 (0 no effect, 100 complete control)
[17] = Preemergence, 62 g ai/ha, scale 0 to 100
[18] = Preemergence, 31 g ai/ha, 0 to 100 scale, 0 no effect, 100 complete control
[19] = Preemergence, 62 g ai/ha, 0 to 100 scale, 0 no effect, 100 complete control
[20] = Flood (flooded paddy test), 62 g ai/ha, scale 0 to 100, 0 no effect, 100 complete control
[21] = Flood (flooded paddy test), 125 g ai/ha, scale 0 to 100, 0 no effect, 100 complete control
[22] = Flood (flooded paddy test), 250 g ai/ha, scale 0 to 100, 0 no effect, 100 complete control
[23] = Flood, 31 g ai/ha, scale 0 to 100

CCc1cc(-c2ccc(Cl)cc2)nn1-c1c(OC(=O)C(C)(C)C)cnn(C)c1=O [Compound 40]
80: Plant response rating, Bromegrass, Downy [5, 13] | Plant response rating, Bromegrass, Downy [5, 18] | Surinam Grass plant response rating ([7]; Preemergence, scale 0 to 100) | Plant response rating, Rice (rice (Oryza sativa); [22])
90: Plant response rating, Oat, Wild (wild oat (Avena fatua); [16]) | Foxtail, Green plant response rating ([4]; Preemergence, scale 0 to 100) | Plant response rating, Bromegrass, Downy [5, 17] | Plant response rating, Wheat [6, 19]
100: Plant response rating, Corn (corn (Zea mays); [13]) | Plant response rating, Corn (corn (Zea mays); [14]) | Plant response rating, Oat, Wild (wild oat (Avena fatua); [12]) | Plant response rating, Oat, Wild (wild oat (Avena fatua); [13]) | Plant response rating, Oat, Wild (wild oat (Avena fatua); [14]) | Plant response rating, Crabgrass, Large [3, 14] | Plant response rating, Crabgrass, Large [3, 15] | Plant response rating, Crabgrass, Large [3, 18] | Plant response rating, Crabgrass, Large [3, 17] | Plant response rating, Foxtail, Green [4, 13] | Plant response rating, Foxtail, Green [4, 14] | Plant response rating, Foxtail, Green [4, 15] | Plant response rating, Foxtail, Green [4, 18] | Plant response rating, Foxtail, Green [4, 17] | Plant response rating, Bromegrass, Downy [5, 14] | Plant response rating, Wheat [6, 14] | Plant response rating, Surinam Grass [7, 12] | Plant response rating, Surinam Grass [7, 14] | Plant response rating, Surinam Grass [7, 15] | Plant response rating, Surinam Grass [7, 16] | Plant response rating, Surinam Grass [7, 19] | Plant response rating, Barnyardgrass [11, 21] | Plant response rating, Barnyardgrass [11, 22]
5: Wheat plant response rating ([6]; Preemergence, scale 0 to 100)
45: Crabgrass, Large plant response rating ([3]; Preemergence, scale 0 to 100)
35: Plant response rating, Rice (rice (Oryza sativa); [23])
50: Bromegrass, Downy plant response rating ([5]; postemergence, 0-100 scale)
95: Plant response rating, Corn (corn (Zea mays); [17]) | Oat, Wild plant response rating (wild oat (Avena fatua); postemergence, 0-100 scale) | Plant response rating, Oat, Wild (wild oat (Avena fatua); [17]) | Plant response rating, Foxtail, Green [4, 12]
70: Crabgrass, Large plant response rating ([3]; postemergence, 0-100 scale) | Wheat plant response rating ([6]; postemergence, 0-100 scale) | Plant response rating, Wheat [6, 12] | Plant response rating, Rice (rice (Oryza sativa); [21])
85: Plant response rating, Corn (corn (Zea mays); [18]) | Plant response rating, Oat, Wild (wild oat (Avena fatua); [15]) | Foxtail, Green plant response rating ([4]; postemergence, 0-100 scale) | Plant response rating, Barnyardgrass [11, 20]
98: Plant response rating, Crabgrass, Large [3, 12] | Plant response rating, Crabgrass, Large [3, 13] | Surinam Grass plant response rating ([7]; postemergence, 0-100 scale)
0: Morningglory plant response rating ([1]; postemergence, 0-100 scale) | Plant response rating, Morningglory [1, 12] | Plant response rating, Morningglory [1, 13] | Plant response rating, Morningglory [1, 14] | Plant response rating, Morningglory [1, 15] | Plant response rating, Morningglory [1, 16] | Plant response rating, Morningglory [1, 17] | Morningglory plant response rating ([1]; Preemergence, scale 0 to 100) | Corn plant response rating (corn (Zea mays); postemergence, 0-100 scale) | Plant response rating, Corn (corn (Zea mays); [12]) | Velvetleaf plant response rating ([2]; postemergence, 0-100 scale) | Plant response rating, Velvetleaf [2, 12] | Plant response rating, Velvetleaf [2, 14] | Plant response rating, Velvetleaf [2, 15] | Plant response rating, Velvetleaf [2, 16] | Plant response rating, Velvetleaf [2, 19] | Velvetleaf plant response rating ([2]; Preemergence, scale 0 to 100) | Bromegrass, Downy plant response rating ([5]; Preemergence, scale 0 to 100) | Plant response rating, Sunflower ([8]; 16 g ai/ha, scale 0 to 100 (0 no effect, 100 complete control)) | Plant response rating, Sunflower ([8]; 31 g ai/ha, scale 0 to 100 (0 no effect, 100 complete control)) | Plant response rating, Sunflower ([8]; 62 g ai/ha, scale 0 to 100) | Sunflower plant response rating ([8]; 8 g ai/ha, scale 0 to 100) | Plant response rating, Sedge, Umbrella [9, 20] | Plant response rating, Sedge, Umbrella [9, 21] | Plant response rating, Sedge, Umbrella [9, 22] | Plant response rating, Sedge, Umbrella [9, 23] | Plant response rating, Ducksalad [10, 20] | Plant response rating, Ducksalad [10, 21] | Plant response rating, Ducksalad [10, 22] | Plant response rating, Ducksalad [10, 23]
60: Oat, Wild plant response rating (wild oat (Avena fatua); Preemergence, scale 0 to 100) | Plant response rating, Bromegrass, Downy [5, 12] | Plant response rating, Bromegrass, Downy [5, 15] | Plant response rating, Wheat [6, 15] | Plant response rating, Wheat [6, 16] | Plant response rating, Barnyardgrass [11, 23]
75: Plant response rating, Corn (corn (Zea mays); [15])
40: Plant response rating, Rice (rice (Oryza sativa); [20])
55: Corn plant response rating (corn (Zea mays); Preemergence, scale 0 to 100)
